{"source": "patent US20110003760A1", "about": "“ABNORMAL PROTEIN REMOVING METHOD” (priority 2005, published 2011)", "system": "carbonylated protein in three-dimensional human skin model TESTSKIN (LSE-high)", "assay": "Carbonylated protein in three-dimensional human skin model, Western blotting (DNPH)", "assay_type": "cell-based", "conditions": "for Relative photographic density (carbonylated protein): untreated without UV = 100%", "experimental": "Three-dimensional human skin models are widely used in safety evaluation and effectiveness evaluation as a simulated model of human skin. In this test, TESTSKIN (LSE-high) (Toyobo Co., Ltd.) was used as a three-dimensional human skin model.\nA culture medium was added to the outer well of TESTSKIN (LSE-high) and cultured for 24 hours. UVA and UVB were irradiated at 10 J/cm^2 and 100 mJ/cm^2, respectively. UVB was irradiated for 2 minutes at a UV intensity of […] using FL20S-E-30/DMR (Clinical Supply Co., Ltd.) to achieve a total irradiation dose of 100 mJ/cm^2. UV intensity was measured using a UV MONITOR MS-211-I (Eiko Instruments Co., Ltd.).\nAs a control group, three-dimensional human skin models not irradiated with UVA or UVB were also prepared.\nThereafter, the culture solution was changed and each agent was added by 100 μl onto the tissues in the assay ring, after which the medium was cultured for 36 hours. Thereafter, the tissues were collected and a tissue extraction solution (50 mM Tris-HCl (pH 7.5), 0.5% (Octylphenoxy) polyethoxyethanol (Sigma-Aldrich Corp.)) was added, and then the mixture was homogenized using a Teflon (registered trademark) homogenizer. The homogenized mixture was centrifuged for 30 minutes at 10,000×G to remove tissue fragments, and then dialyzed overnight in distilled water at 4° C. Thereafter, the dialyzed mixture was freeze-dried to remove water. A tissue extraction solution was added to obtain a ×20 concentrate, and this concentrate was used as a three-dimensional skin model extract sample.\nIn this test, 2,4-dinitrophenyl hydrazine (DNPH), which specifically bonds with the carbonyl group in the protein produced by oxidation damage, was used to label carbonylated protein, and then detection was performed using an anti-DNPH antibody that specifically bonds with DNPH.\nThe specific method is explained below. DNPH protein was detected from the protein in the sample by means of Western blotting using a DNPH kit (Oxi Blot™ Protein Oxidation Detection Kit; Chemicon International Inc.). Detection was performed by exposing PVDF membranes to light using a […] (ECL PLUS; Amarsham PLC), and an automatic developer (FPM100; FUJIFILM Medical Co., Ltd.) was used to transfer images. A densitometer (Molecular Dynamics Inc.) was then used to analyze the images to quantify the photographic density. For your information, protein in the sample was reduced and measured as deemed appropriate. In this case, 2-mercaptoethanol was used as a reducing agent and the mixture was heated for 5 minutes at 100° C. to sever the disulfide bond.\nBased on the above results, it is clear that Bletilla striata extract and silybin suppress accumulation of carbonylated protein in a three-dimensional skin model in a manner dependent on the concentration. Accordingly, whether or not a combined use of Bletilla striata extract and silybin would synergistically suppress accumulation of carbonylated protein was evaluated. Also, whether or not a combined use of silybin and soybean saponin, a substance known to have an action to suppress accumulation of carbonylated protein, would synergistically suppress accumulation of carbonylated protein was evaluated. As a result, regardless of whether or not UV light was irradiated using silybin (3 μM) in combination with Bletilla striata extract (0.1%; final extract concentration of 0.001%), or using silybin (3 μM) in combination with soybean saponin (0.0005%), suppressed the accumulation of carbonylated protein synergistically compared to when a sample was treated with silybin (3 μM), Bletilla striata extract (0.1%; final extract concentration of 0.001%) or soybean saponin (0.0005%) alone, as far as accumulation of carbonylated protein in a three-dimensional skin model was concerned (FIG. 7 and Table 7; results of non-reduced protein)."}
{"smiles": "COc1cc(C2Oc3cc([C@H]4Oc5cc(O)cc(O)c5C(=O)[C@@H]4O)ccc3OC2CO)ccc1O", "note": "(stereo partly shown) [Silybin, silybin]", "values": [{"measurement": "Relative photographic density (carbonylated protein)", "setting": "Table 7, non-reduced protein, head printed UV (−), silybin 3 μM, Bletilla striata extract 0.1%, soybean saponin 0.0005%, alone or combined", "value": 300, "unit": "%"}, {"measurement": "Relative photographic density (carbonylated protein)", "setting": "Table 7, non-reduced protein, first column UV (−), silybin 3 μM, Bletilla striata extract 0.1%, soybean saponin 0.0005%, alone or combined", "value": 60, "unit": "%"}, {"measurement": "amount of carbonylated protein compared to the sample not given any treatment under UV irradiation", "setting": "non-reduced protein, 3 μM", "value": 30, "unit": "%"}, {"measurement": "amount of carbonylated protein compared to the sample not given any treatment under UV irradiation", "setting": "non-reduced protein, 10 μM", "value": 9, "unit": "%"}, {"measurement": "amount of carbonylated protein compared to the sample not given any treatment under UV irradiation", "setting": "non-reduced protein, silybin 3 μM, Bletilla striata extract 0.1%, soybean saponin 0.0005%, alone or combined", "value": 60, "unit": "%"}, {"measurement": "Relative photographic density (carbonylated protein)", "setting": "non-reduced protein, treatment concentration 3 μM, UV (+)", "value": 95, "unit": "%"}, {"measurement": "Relative photographic density (carbonylated protein)", "setting": "non-reduced protein, treatment concentration 3 μM, UV (−)", "value": 55, "unit": "%"}, {"measurement": "Relative photographic density (carbonylated protein)", "setting": "non-reduced protein, treatment concentration 10 μM, UV (+)", "value": 30, "unit": "%"}, {"measurement": "Relative photographic density (carbonylated protein)", "setting": "non-reduced protein, treatment concentration 10 μM, UV (−)", "value": 8, "unit": "%"}, {"measurement": "amount of carbonylated protein compared to the sample not given any treatment under UV irradiation", "setting": "reduced protein, 3 μM", "value": 25, "unit": "%"}, {"measurement": "amount of carbonylated protein compared to the sample not given any treatment under UV irradiation", "setting": "reduced protein, 10 μM", "value": 10, "unit": "%"}, {"measurement": "Relative photographic density (carbonylated protein)", "setting": "reduced protein, treatment concentration 3 μM, UV (+)", "value": 85, "unit": "%"}, {"measurement": "Relative photographic density (carbonylated protein)", "setting": "reduced protein, treatment concentration 3 μM, UV (−)", "value": 50, "unit": "%"}, {"measurement": "Relative photographic density (carbonylated protein)", "setting": "reduced protein, treatment concentration 10 μM, UV (+)", "value": 35, "unit": "%"}, {"measurement": "Relative photographic density (carbonylated protein)", "setting": "reduced protein, treatment concentration 10 μM, UV (−)", "value": 5, "unit": "%"}, {"measurement": "Relative photographic density (carbonylated protein)", "setting": "reduced protein, treatment concentration 10 μM, UV (−), listed as silybin", "value": 10, "unit": "%"}]}
